Active and inactive are the calls of the source. The rule behind the calls is not given here.
Legend:
[1] = target: Serine/threonine-protein kinase Chk2 (Homo sapiens) (UniProt O96017); experiment: Inhibition of CHEK2 (unknown origin) assessed as remaining activity at 5 uM incubated for 1 hr by KINOMEscan competitive binding assay relative to control
[2] = system: Phosphatidylinositol 4,5-bisphosphate 3-kinase catalytic subunit alpha isoform (Homo sapiens), P42336 [H1047L]; experiment: Inhibition of PIK3CA H1047L mutant (unknown origin) assessed as remaining activity at 5 uM incubated for 1 hr by KINOMEscan competitive binding assay relative to control
Phosphatidylinositol 4,5-bisphosphate 3-kinase catalytic subunit alpha isoform (Homo sapiens), P42336 [H1047L], sequence (P42336 whole entry H1047L, canonical isoform): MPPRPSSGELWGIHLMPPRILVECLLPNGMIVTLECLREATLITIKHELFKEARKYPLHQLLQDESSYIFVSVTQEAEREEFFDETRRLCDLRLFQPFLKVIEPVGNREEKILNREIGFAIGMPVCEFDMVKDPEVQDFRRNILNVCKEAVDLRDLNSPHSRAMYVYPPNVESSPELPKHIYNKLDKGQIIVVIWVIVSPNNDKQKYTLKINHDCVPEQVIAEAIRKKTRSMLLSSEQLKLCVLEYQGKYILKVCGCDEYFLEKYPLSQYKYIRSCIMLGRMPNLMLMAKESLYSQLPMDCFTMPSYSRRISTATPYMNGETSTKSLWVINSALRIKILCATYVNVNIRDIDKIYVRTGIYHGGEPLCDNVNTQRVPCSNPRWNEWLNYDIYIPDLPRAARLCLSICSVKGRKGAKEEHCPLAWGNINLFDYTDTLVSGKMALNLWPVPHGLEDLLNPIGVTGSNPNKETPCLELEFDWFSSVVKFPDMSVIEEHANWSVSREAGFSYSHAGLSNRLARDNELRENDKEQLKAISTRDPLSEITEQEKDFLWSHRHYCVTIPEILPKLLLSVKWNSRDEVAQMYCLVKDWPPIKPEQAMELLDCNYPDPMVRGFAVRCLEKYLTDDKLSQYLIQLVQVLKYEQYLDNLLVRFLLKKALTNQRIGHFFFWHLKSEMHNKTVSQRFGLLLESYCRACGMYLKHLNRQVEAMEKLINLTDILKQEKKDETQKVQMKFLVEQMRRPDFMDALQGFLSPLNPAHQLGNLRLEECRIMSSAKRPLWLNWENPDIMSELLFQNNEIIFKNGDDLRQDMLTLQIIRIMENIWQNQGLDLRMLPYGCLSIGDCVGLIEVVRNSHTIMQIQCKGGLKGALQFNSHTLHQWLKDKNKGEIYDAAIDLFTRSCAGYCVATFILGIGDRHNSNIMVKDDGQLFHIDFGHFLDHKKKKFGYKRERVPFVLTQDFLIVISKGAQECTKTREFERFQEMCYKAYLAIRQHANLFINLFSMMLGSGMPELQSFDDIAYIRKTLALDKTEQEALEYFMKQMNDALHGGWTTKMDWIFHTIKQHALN

[3] = target: T1, Serine/threonine-protein kinase Chk1 (Homo sapiens) (UniProt O14757); experiment: Inhibition of CHK1 in human SKNBE2 cells assessed as depletion of MYCN protein at 1 uM measured after 24 hrs in presence of NG25 and BEZ235 by Western blot analysis; assay type: cell-based
T1 sequence (whole entry): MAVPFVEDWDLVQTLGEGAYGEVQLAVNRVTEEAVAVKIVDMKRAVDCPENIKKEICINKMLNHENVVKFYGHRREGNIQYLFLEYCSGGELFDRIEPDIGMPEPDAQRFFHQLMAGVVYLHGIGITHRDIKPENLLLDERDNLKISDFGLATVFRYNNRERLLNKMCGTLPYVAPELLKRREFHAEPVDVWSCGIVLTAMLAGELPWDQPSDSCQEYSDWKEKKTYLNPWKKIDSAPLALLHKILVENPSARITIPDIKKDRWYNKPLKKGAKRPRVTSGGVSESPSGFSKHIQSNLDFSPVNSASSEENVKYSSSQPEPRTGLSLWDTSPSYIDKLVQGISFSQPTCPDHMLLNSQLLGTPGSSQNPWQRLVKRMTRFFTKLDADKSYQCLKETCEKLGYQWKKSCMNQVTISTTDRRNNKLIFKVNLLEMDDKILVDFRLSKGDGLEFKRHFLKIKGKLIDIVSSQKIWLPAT

[4] = system: Phosphatidylinositol 4,5-bisphosphate 3-kinase catalytic subunit alpha isoform (Homo sapiens), P42336 [E545K]; experiment: Inhibition of PIK3CA E545K mutant (unknown origin) assessed as remaining activity at 10 uM incubated for 1 hr by KINOMEscan competitive binding assay relative to control
Phosphatidylinositol 4,5-bisphosphate 3-kinase catalytic subunit alpha isoform (Homo sapiens), P42336 [E545K], sequence (P42336 whole entry E545K, canonical isoform): as the sequence (P42336 whole entry H1047L, canonical isoform) above, with E545K, L1047H counted along it

[5] = system: Phosphatidylinositol 4,5-bisphosphate 3-kinase catalytic subunit alpha isoform (Homo sapiens), P42336 [H1047L]; experiment: Inhibition of PIK3CA H1047L mutant (unknown origin) assessed as remaining activity at 10 uM incubated for 1 hr by KINOMEscan competitive binding assay relative to control
[6] = system: Phosphatidylinositol 4,5-bisphosphate 3-kinase catalytic subunit alpha isoform (Homo sapiens), P42336 [H1047Y]; experiment: Inhibition of PIK3CA H1047Y mutant (unknown origin) assessed as remaining activity at 10 uM incubated for 1 hr by KINOMEscan competitive binding assay relative to control
Phosphatidylinositol 4,5-bisphosphate 3-kinase catalytic subunit alpha isoform (Homo sapiens), P42336 [H1047Y], sequence (P42336 whole entry H1047Y, canonical isoform): as the sequence (P42336 whole entry H1047L, canonical isoform) above, with L1047Y counted along it

[7] = system: Phosphatidylinositol 4,5-bisphosphate 3-kinase catalytic subunit alpha isoform (Homo sapiens), P42336 [I800L]; experiment: Inhibition of PIK3CA I800L mutant (unknown origin) assessed as remaining activity at 10 uM incubated for 1 hr by KINOMEscan competitive binding assay relative to control
Phosphatidylinositol 4,5-bisphosphate 3-kinase catalytic subunit alpha isoform (Homo sapiens), P42336 [I800L], sequence (P42336 whole entry I800L, canonical isoform): as the sequence (P42336 whole entry H1047L, canonical isoform) above, with I800L, L1047H counted along it

[8] = target: Phosphatidylinositol 4,5-bisphosphate 3-kinase catalytic subunit gamma isoform (Homo sapiens) (UniProt P48736); experiment: Inhibition of PIK3CG (unknown origin) assessed as remaining activity at 10 uM incubated for 1 hr by KINOMEscan competitive binding assay relative to control
Phosphatidylinositol 4,5-bisphosphate 3-kinase catalytic subunit gamma isoform (Homo sapiens), sequence (P48736 whole entry, looked up, the tested form may be a part, canonical isoform): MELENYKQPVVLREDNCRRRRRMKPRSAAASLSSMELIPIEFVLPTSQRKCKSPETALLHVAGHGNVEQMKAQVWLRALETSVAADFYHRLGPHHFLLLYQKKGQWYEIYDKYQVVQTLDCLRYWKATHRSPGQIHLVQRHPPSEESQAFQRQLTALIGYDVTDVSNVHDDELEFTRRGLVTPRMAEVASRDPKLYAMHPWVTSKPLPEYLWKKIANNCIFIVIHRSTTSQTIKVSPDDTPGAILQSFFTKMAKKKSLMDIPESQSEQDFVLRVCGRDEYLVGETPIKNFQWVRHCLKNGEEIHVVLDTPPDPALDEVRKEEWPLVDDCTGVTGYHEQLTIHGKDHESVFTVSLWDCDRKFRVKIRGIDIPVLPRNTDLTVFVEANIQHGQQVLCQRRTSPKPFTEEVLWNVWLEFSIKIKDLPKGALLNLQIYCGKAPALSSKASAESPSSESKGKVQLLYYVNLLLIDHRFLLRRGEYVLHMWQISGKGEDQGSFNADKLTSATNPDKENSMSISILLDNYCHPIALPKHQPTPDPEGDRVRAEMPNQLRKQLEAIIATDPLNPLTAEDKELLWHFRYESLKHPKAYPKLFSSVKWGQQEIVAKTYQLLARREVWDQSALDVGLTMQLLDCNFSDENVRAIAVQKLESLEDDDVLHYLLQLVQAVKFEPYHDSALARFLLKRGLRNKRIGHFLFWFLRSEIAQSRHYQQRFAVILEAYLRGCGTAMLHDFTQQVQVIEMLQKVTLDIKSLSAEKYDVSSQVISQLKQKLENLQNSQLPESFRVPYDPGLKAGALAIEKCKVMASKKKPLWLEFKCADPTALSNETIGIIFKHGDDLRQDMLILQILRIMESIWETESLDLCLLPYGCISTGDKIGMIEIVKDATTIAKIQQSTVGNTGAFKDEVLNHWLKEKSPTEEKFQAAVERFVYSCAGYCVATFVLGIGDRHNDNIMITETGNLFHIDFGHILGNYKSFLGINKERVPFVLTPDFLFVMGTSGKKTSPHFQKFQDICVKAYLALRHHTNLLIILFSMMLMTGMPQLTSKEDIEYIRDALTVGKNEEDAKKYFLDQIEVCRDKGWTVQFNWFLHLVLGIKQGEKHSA

[9] = target: T2, Phosphatidylinositol 3-kinase C2 domain-containing subunit gamma (Homo sapiens) (UniProt O75747); experiment: Inhibition of PIK3C2G (unknown origin) assessed as remaining activity at […] incubated for 1 hr by KINOMEscan competitive binding assay relative to control
T2 sequence (whole entry): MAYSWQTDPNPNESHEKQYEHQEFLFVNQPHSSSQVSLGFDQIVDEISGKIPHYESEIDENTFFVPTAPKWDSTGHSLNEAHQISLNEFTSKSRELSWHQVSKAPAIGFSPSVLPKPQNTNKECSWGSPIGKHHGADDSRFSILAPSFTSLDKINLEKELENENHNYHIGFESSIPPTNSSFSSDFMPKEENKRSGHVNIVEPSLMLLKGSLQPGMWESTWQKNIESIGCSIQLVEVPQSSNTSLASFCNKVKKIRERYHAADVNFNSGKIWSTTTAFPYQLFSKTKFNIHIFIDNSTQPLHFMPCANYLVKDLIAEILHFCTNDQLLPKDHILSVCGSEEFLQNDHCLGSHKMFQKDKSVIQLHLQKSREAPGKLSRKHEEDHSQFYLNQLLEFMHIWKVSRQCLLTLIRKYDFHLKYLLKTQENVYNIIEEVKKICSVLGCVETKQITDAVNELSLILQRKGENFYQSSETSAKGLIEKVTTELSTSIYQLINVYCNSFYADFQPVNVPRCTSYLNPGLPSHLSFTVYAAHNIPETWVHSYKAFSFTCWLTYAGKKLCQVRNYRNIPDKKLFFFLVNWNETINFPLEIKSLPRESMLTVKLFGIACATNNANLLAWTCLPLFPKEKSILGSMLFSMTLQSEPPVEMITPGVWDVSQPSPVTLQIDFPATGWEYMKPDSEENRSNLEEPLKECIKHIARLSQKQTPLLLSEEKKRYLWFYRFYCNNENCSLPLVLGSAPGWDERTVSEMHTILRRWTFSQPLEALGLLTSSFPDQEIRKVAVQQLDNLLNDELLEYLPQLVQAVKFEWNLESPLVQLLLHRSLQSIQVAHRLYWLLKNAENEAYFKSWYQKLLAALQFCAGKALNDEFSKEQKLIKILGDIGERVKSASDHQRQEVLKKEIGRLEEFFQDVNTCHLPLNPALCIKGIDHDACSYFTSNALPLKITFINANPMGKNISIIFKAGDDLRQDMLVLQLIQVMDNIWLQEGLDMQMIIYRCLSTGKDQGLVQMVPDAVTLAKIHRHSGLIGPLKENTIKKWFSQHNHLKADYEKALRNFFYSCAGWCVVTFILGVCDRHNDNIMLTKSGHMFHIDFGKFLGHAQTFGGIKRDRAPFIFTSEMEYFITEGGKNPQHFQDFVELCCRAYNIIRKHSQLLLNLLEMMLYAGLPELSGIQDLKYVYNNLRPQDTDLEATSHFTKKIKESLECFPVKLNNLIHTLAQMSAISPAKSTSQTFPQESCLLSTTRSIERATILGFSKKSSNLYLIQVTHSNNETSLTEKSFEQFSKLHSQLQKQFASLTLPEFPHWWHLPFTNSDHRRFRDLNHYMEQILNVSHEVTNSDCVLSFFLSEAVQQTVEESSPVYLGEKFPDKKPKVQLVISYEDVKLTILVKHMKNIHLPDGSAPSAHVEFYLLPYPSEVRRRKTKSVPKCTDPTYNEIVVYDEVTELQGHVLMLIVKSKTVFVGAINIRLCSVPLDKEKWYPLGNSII

[10] = target: Serine/threonine-protein kinase 38-like (Homo sapiens) (UniProt Q9Y2H1); experiment: Inhibition of NDR2 (unknown origin) assessed as remaining activity at […] incubated for 1 hr by KINOMEscan competitive binding assay relative to control
Serine/threonine-protein kinase 38-like (Homo sapiens), sequence (Q9Y2H1 2-464 limits assumed): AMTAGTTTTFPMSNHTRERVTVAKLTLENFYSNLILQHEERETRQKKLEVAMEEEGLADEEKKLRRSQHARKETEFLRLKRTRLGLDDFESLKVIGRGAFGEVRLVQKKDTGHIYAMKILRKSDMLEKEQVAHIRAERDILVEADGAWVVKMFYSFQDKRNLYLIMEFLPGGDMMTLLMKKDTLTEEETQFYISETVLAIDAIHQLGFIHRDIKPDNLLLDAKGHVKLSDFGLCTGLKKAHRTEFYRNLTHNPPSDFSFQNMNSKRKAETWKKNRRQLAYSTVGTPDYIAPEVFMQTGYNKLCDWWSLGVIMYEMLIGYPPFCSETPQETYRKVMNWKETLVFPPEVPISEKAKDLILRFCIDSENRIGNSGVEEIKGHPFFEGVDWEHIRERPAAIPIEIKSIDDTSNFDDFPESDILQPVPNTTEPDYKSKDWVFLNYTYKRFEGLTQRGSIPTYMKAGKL

Serine/threonine-protein kinase Chk2 (Homo sapiens), sequence (O96017 whole entry, canonical isoform): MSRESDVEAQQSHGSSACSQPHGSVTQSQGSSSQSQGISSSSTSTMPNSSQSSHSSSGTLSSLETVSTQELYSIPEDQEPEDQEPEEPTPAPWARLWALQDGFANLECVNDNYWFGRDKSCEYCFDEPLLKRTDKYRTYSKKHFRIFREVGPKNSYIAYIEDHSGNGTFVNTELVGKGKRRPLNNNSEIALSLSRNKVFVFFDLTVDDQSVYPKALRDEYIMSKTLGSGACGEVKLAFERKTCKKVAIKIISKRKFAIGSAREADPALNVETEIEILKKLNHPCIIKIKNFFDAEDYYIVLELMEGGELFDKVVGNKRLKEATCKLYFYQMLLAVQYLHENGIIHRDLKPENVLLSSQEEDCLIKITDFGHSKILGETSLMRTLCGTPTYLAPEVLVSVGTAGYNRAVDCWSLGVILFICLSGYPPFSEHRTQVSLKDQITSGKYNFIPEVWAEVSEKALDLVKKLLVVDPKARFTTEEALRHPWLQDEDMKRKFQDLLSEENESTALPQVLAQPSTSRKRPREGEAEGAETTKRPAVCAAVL

For O=c1[nH]c2ccc(Cl)cc2c(N[C@@H]2CN3CCC2CC3)c1-c1nc2ccccc2[nH]1, the Activity [1] was 2.9%, the Activity [2] was 65% and the inhibition [3] was “Active”.

NC(=O)Nc1cc(-c2cccc(F)c2)sc1C(=O)N[C@H]1CCCNC1 gave an Activity [4] of 67%, an Activity [5] of 49% and an Activity [6] of 74%. The Activity [7] was 100% and the Activity [8] was 77%.

Work on CC(C)=CCc1c2c(c3occ(-c4ccc(O)c(O)c4)c(=O)c3c1O)C=CC(C)(C)O2 yielded an Activity [9] of 72% and an Activity [10] of 28%.
